Article PMC10766610, “DCAF1-based PROTACs with activity against clinically validated targets overcoming intrinsic- and acquired-degrader resistance” (Nature Communications, 2024)
Where two headings read alike, the source gives them in different places. Blank lines part the entries; values can stand above or below the compound they belong to.

Assays:
BTK [1] = biological target: T1, BTK (Homo sapiens, UniProt Q06187); assay: Immunoblot of BTK in TMD8 WT and CRBN (CBt) resistant cells; assay type: cell-based; parameters: performed with full-length BTK and endogenous DCAF1; expressed in transfected cells; host or cells: TMD8 cells, lentiviral, blasticidin-selected (TMD8 BTK-GFP/mCh); conditions: 24 h; 0.1 µM CBt, 1 µM DBt-10
T1 sequence (Q06187 2-659 limits assumed): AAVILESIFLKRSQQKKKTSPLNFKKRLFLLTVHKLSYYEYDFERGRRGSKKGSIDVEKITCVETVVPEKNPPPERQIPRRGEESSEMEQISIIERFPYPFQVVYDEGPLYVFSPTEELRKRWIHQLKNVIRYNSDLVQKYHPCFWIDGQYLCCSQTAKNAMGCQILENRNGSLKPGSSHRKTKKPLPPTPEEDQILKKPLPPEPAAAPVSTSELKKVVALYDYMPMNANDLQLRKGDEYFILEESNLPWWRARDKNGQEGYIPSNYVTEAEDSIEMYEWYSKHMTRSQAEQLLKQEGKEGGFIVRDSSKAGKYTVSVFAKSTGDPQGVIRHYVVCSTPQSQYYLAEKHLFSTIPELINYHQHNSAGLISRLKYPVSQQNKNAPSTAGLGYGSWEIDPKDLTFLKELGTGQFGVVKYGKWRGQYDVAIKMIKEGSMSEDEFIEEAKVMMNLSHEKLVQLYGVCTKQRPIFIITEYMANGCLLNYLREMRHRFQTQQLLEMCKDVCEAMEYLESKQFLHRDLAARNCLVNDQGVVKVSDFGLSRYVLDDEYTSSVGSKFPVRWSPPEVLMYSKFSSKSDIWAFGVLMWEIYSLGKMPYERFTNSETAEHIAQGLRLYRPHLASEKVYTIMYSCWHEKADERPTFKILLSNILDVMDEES
Experimental: Whole cell lysates for immunoblotting were prepared by pelleting cells at 4 °C (300 g) for 3 min. Cell pellets were then washed 1x with PBS and resuspended in RIPA lysis buffer (VWR, cat # 97063-270) supplemented with protease (Thermo Scientific, cat # A32955) and phosphatase (Thermo Scientific, cat # A32957) inhibitor tablets. Lysates were clarified at 16,000 × g for 15 min at 4 °C prior to quantification by Lowry assay (Bio-Rad cat # 5000113 and cat # 5000114). Whole-cell lysates were loaded into 4–20% Criterion TGX Precast 18 well gels (Bio-Rad, cat # 5671094) and separated by electrophoreses at 120 V for 1 h. The gels were transferred to a nitrocellulose membrane using the Trans-Blot Turbo (Bio-Rad) for 7 min and then blocked for 1 h at room temperature in Odyssey blocking buffer (LICOR Biosciences, cat # 927-50000). Membranes were probed with the appropriate primary antibodies (diluted 1:1000) overnight at 4 °C in 20% Odyssey blocking buffer in 1x TBST. Membranes were washed three times with 1x TBST (5 min per wash), and then incubated with IRDye goat anti-mouse (LICOR, cat # 926-32210) or goat anti-rabbit (LICOR, cat # 926-32211) secondary antibody diluted 1:10,000 in 20% Odyssey blocking buffer for 1 h at room temperature. After three 5-min washes with 1x TBST, the immunoblots were visualized using the ODYSSEY Infrared Imaging System (LICOR). […]

BRD9 [2] = biological target: T2, BRD9 (Homo sapiens, UniProt Q9H8M2); assay: Capillary western of BRD9 in 768-O cells; assay type: cell-based; conditions: 768-O cells lacking VHL expression
T2 sequence (Q9H8M2 1-597): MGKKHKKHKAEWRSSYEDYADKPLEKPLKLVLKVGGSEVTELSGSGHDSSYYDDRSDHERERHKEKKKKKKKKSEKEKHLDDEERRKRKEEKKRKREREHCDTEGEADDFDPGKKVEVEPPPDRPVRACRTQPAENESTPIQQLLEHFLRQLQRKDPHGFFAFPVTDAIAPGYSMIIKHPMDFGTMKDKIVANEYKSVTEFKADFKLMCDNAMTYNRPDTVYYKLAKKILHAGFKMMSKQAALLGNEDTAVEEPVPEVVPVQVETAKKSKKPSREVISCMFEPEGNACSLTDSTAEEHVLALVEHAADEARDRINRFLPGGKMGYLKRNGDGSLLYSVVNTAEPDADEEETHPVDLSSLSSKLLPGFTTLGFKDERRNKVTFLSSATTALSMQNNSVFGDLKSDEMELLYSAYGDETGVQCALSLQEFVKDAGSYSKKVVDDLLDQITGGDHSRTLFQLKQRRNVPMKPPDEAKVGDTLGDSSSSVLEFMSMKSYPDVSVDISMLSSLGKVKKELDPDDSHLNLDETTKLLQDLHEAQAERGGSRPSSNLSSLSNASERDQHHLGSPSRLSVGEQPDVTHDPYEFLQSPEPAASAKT
Experimental: Protein peaks were analyzed using Compass for Simple Western version 5.0.1 (ProteinSimple), area under the curve for both α-tubulin ([…]) and BRD9 (90 kDa) per capillary was extracted and BRD9 area was normalized to α-tubulin area on a per-capillary basis before each sample was normalized to the DMSO for each run of three triplicates.

BRD7 = biological target: T3, BRD7 (Homo sapiens, UniProt Q9NPI1); assay: BRD7-HiBiT protein abundance luminescence assay in HEK293 cells
T3 sequence (Q9NPI1 1-651): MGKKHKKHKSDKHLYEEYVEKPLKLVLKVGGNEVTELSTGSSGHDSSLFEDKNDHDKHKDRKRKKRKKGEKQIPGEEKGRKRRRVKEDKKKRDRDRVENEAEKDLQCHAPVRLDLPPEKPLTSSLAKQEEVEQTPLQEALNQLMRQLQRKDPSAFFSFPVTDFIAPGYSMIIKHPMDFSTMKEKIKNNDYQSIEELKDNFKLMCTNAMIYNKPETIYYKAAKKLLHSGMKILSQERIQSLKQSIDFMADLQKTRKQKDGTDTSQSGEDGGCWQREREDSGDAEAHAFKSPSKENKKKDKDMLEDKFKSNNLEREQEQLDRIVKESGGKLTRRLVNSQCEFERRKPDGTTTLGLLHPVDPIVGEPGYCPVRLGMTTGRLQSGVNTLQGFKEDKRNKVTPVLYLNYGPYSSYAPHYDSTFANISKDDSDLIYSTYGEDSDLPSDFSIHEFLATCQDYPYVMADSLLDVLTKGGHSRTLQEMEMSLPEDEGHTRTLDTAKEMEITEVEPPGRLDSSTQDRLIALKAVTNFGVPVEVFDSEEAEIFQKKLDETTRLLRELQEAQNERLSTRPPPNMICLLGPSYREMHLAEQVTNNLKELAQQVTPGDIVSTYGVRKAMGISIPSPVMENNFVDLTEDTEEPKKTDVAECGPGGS
Text: HEK293/BRD9-HiBiT pools (PROMEGA # CS3023120) and HEK293/BRD7-HiBiT pools (PROMEGA # CS3023124) were purchased from Promega. We performed clonal selection for HEK293/BRD9-HiBiT cell line using single-cell sorting and screening for HiBiT expression using Nano-Glo HiBiT Lytic Detection System (Promega # N3030). The HEK293/BRD9-HiBiT clone and HEK293/BRD7-HiBiT pool to perform standard HiBiT assays.

[3] = tested on: TMD8 WT and TMD8 CRBN resist. cells; assay: CellTiter-Glo viability, TMD8 WT vs CRBN resist. cells; assay type: cell-based, human; conditions: CellTiter-Glo proliferation
Experimental: TMD8 cells were grown in the presence of a CRBN-BTK PROTAC CBt using a gradual dose increase. Start treatment was 0.1 nM for 6 weeks, followed by 3 weeks at 0.4 nM and another 4 weeks at 10 nM to finally obtain CBt resistant TMD8 cells (TMD8 CRBN resist.).
d) Viability measured by cell titer-Glo for DBt-10 (green) vs (13) (purple) in WT (solid) vs CRBN resist.
(dotted) TMD8 cells. Data represents average ± standard deviation from n=3 replicates.
e) Repeat of the viability measured by cell titer-Glo for DBt-10 (green) vs (13) (purple) in WT (solid) vs
CRBN resist. (dotted) TMD8 cells with adjusted dose response range. Data represents average ±
standard deviation from n=3 replicates.
(§1) Source data are provided as a Source Data file

BTK [4] = biological target: T1, BTK; assay: BTK-GFP degradation by flow cytometry in TMD8 BTK-GFP/mCh cells; assay type: cell-based; parameters: performed with full-length BTK and endogenous DCAF1; expressed in transfected cells; host or cells: TMD8 cells, lentiviral, blasticidin-selected (TMD8 BTK-GFP/mCh); conditions: TMD8 BTK-GFP/mCh, 24 h; read-out: DC50 BTK-Degradation
Experimental: The bicistronic pLenti6 BTK-GFP-chysel-mCHERRY expression vector was cloned as described[92] using Gateway cloning with a pENTR-BTK plasmid lacking a STOP codon. TMD8 cells were then infected with lentiviral particles from this vector as described above and stably transfected cells were selected with blasticidin at a concentration of 10 μg/mL referred to as TMD8 BTK-GFP/mCh cells.
(§2) For flow cytometry measurements, 25,000 exponentially growing TMD8 BTK-GFP/mCh cells were plated in 100 μL of each well of a 96-well plate and grown for 24 h. Cells were then dosed with corresponding compounds and doses from 10 mM DMSO stock for 24 h, after which GFP and mCherry fluorescence was read with a Beckmann Coulter Cytoflex. For competition experiment, both compounds were added at the same time and dosed for 24 h. Cells were gated based on Forward & Side Scatter and selection for Single cells using SSC-A vs. SSC-H. Further, the population of viable cells was defined by the forward & side-scatter characteristics of DMSO-treated cells. To confirm cells outside of this population as non-viable, cells were plated and treated for 24 h, washed with PBS and stained for 30 min with two markers of early (Annexin-V) and late (LIVE/DEAD) apoptosis. Effects on viability were measured by the reduction of the percentage of cells included in this viable-population gate with increasing doses of compound tested. Degradation of BTK was calculated based on subtracting background (BG) fluorescence of parental TMD8 signal via (GFP-BG)/(mCherry-BG) of viable cells. Median ratios of three technical (different wells) replicates were used to calculate daily averages. Each compound dose–response was generated via three biological replicates (different days of experiment). Degradation curve parameters (DC50 & Abs. DC50 & max. Deg) were extracted using GraphPad Prism’s 4-parameter logistic curve fitting.

TMD8 BTK-GFP/mCh cells = assay: Viability by FSC/SSC gate (flow cytometry) in TMD8 BTK-GFP/mCh cells; assay type: cell-based, human; parameters: Max dose w/ Gating Viability >25%: unit: µM; conditions: TMD8 BTK-GFP/mCh, 24 h
Experimental: as §2, with “To confirm cells outside of this population as non-viable, cells were plated and treated for 24 h, washed with PBS and stained for 30 min with two markers of early (Annexin-V) and late (LIVE/DEAD) apoptosis.” left out
(§3) The viability window was determined by measuring the GI50 of viability based on the percentage of cells included in the viable gate and comparing it to the DC50 of degradation. The fold-change difference describing this window is [GI50 Viability / DC50 Degradation], where values above 1 indicate a positive (lower DC50 degradation than AC50 viability) window.

[5] = as above; assay type: cell-based, human; parameters: Max dose w/ Gating Viability >25%: unit: µM; conditions: human, TMD8 BTK-GFP/mCh cells, TMD8 BTK-GFP/mCh, 24 h
Experimental: as §2, with “To confirm cells outside of this population as non-viable, cells were plated and treated for 24 h, washed with PBS and stained for 30 min with two markers of early (Annexin-V) and late (LIVE/DEAD) apoptosis.” left out
as §3

BRD9 [6] = biological target: T2, BRD9; assay: Rescue of DBr-1 mediated BRD9 degradation by co-treatment, BRD9-HiBiT HEK293 cells; assay type: cell-based; parameters: host or cells: HEK293/BRD9-HiBiT knock-in; clone and BRD9-HiBiT/CAS9/FF clone; conditions: (13) 1 µM, OICR8268 10 µM, BI-9564 10 µM
Experimental: Supplementary figure 4. Competition experiments with DBr-1 and DBr-1-N […]
a) BRD9-HiBiT signal detection of samples pretreated with either DMSO, 10µM OICR-8268, 1µM […]
Data represents average ± standard deviation from n=3 replicates. DC50 values and […]
maximal observed degradation are shown below. […]
b) Cell titer Glow assay of BRD9 HiBiT cells. Cells pretreated with either DMSO, 10µM OICR-8268, […]
Data represents average ± standard deviation from n=3 replicates.
as §1

BRD9 [7] = biological target: T2, BRD9; assay: Immunoblot of BRD9 in HEK293 BRD9-HiBiT/FF/CAS9 cells; assay type: cell-based; parameters: host or cells: HEK293/BRD9-HiBiT knock-in; clone and BRD9-HiBiT/CAS9/FF clone; conditions: 1000 nM, 6 h
Experimental: Whole cell lysates for immunoblotting were prepared by pelleting cells at 4 °C (300 g) for 3 min. Cell pellets were then washed 1x with PBS and resuspended in RIPA lysis buffer (VWR, cat # 97063-270) supplemented with protease (Thermo Scientific, cat # A32955) and phosphatase (Thermo Scientific, cat # A32957) inhibitor tablets. Lysates were clarified at 16,000 × g for 15 min at 4 °C prior to quantification by Lowry assay (Bio-Rad cat # 5000113 and cat # 5000114). Whole-cell lysates were loaded into 4–20% Criterion TGX Precast 18 well gels (Bio-Rad, cat # 5671094) and separated by electrophoreses at 120 V for 1 h. The gels were transferred to a nitrocellulose membrane using the Trans-Blot Turbo (Bio-Rad) for 7 min and then blocked for 1 h at room temperature in Odyssey blocking buffer (LICOR Biosciences, cat # 927-50000). Membranes were probed with the appropriate primary antibodies (diluted 1:1000) overnight at 4 °C in 20% Odyssey blocking buffer in 1x TBST. Membranes were washed three times with 1x TBST (5 min per wash), and then incubated with IRDye goat anti-mouse (LICOR, cat # 926-32210) or goat anti-rabbit (LICOR, cat # 926-32211) secondary antibody diluted 1:10,000 in 20% Odyssey blocking buffer for 1 h at room temperature. After three 5-min washes with 1x TBST, the immunoblots were visualized using the ODYSSEY Infrared Imaging System (LICOR). Alternatively, SDS-PAGE resolved proteins were transferred to a PVDF membrane using a wet blotting system (Invitrogen). Membranes were blocked in 5% Milk-PBS-Tween 20 for 1 h and incubated with primary antibody over night at 4 °C. Secondary antibodies (secondary antibody: anti-rabbit, goat pAb to Rb-IgG (Abcam, #7090); secondary antibody: anti-mouse, sheep IgG HRP-linked (GE healthcare, #NA931V)) were incubated for 1 h at room temperature (RT) before blots were developed on film using the detection kit SuperSignal West Femto Maximum Sensitivity Substrate (Thermo Fisher, #34096).

SMILES: COc1ccc(C(=O)N2CCC3(CCN(CCc4ccc(-c5cc6c(-c7cc(F)cc(NC(=O)c8ccc(C(C)(C)O)cc8F)c7C)ncnc6[nH]5)cc4)CC3)CC2)cc1N1CCC(=O)NC1=O [CBt, reference compound]
- BTK degradation in TMD8 CBt sensitive (WT) vs resistant cells (BTK [1]): BTK degradation only in the WT but not in the CBt-resistant TMD8 cells

- BRD9 levels in 768-O cells (BRD9 [2]): intrinsic resistance
- maximal observed degradation (BRD7), % in brackets (BRD7; 2 h): 21%
- DC50 (BRD7; read-out: rel. DC50 (BRD7), 2 h): 0.137 µM
SMILES: COc1cc(-c2cn(C)c(=O)c3cnccc23)cc(OC)c1CN1CCN(CCCCCOc2cc(-c3scnc3C)ccc2CNC(=O)[C@@H]2C[C@@H](O)CN2C(=O)[C@@H](NC(=O)C2(F)CC2)C(C)(C)C)CC1 [VZ185]

SMILES: CCN(CC)Cc1ccc(-c2cc3c(-c4cc(F)cc(NC(=O)c5ccc(C(C)(C)O)cc5F)c4C)ncnc3[nH]2)cc1 [compound 17, reference compound]
- relative potency change between CBt sensitive and resistant TMD8 cells [3]: neither inhibitor showed any relative potency change
- DC50 (BTK [4]): > 25 µM
- Max dose w/ Gating Viability >25% (TMD8 BTK-GFP/mCh cells): 5.39
- GI50 at 24 h ([5]; read-out: Abs GI50): 6.82 µM
- GI50 at 24 h ([5]; read-out: GI50): 6.75 µM

SMILES: C=CC(=O)N1CCC[C@@H](n2nc(-c3ccc(Oc4ccccc4)cc3)c3c(N)ncnc32)C1 [ibrutinib]
- relative potency change between CBt sensitive and resistant TMD8 cells [3]: neither inhibitor showed any relative potency change

- effect of co-treatment on DBr-1 mediated BRD9 degradation (BRD9 [6]): fully rescue the BRD9 degradation
- BRD9 protein reduction by individual binders (BRD9 [7]): No BRD9 protein reduction
SMILES: COc1cc(-c2cn(C)c(=O)c3cnccc23)c(OC)cc1CN(C)C [BI-9564, reference compound]
